According to patent US20260201008A1, “SECRETIN-DERIVED GLP1R SELECTIVE AGONISTS” (GUBRA A/S, priority 2023, published 2026):
Read-outs that look alike come from different tables or passages of the source. Numbered stars: 1 amine (or outer) side, 2 acyl side, 3 side chain; on linkers, the order of the positions; unused ones are H or OH. Square brackets hold non-standard residues; d marks the D form. Side chains are listed from the residue outwards. Peptide text beside a SMILES is read from it. * marks the point of attachment. C20 diacid = O=C(O)CCCCCCCCCCCCCCCCCCC(=O)*; γGlu = O=C(O)[C@H](CCC(=O)[*:2])N[*:1]; AEEA = NCCOCCOCC(=O)O; Aib = CC(C)(N)C(=O)O

How the values were obtained:
[1] = Turbidity of crude library peptides (absorbance at 600 nm); assay type: physicochemical; details: Physical stability of peptides
Outline: (§1)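 Fibril formation is scored as average ThT fluorescence from duplicate samples monitored for 72 h at 40° C with shaking stress. Turbidity is the absorbance at 600 nm taken before heating. Peptide concentration was 267 μM at pH 4.0 or pH 7.0.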

[2] = Fibril formation of crude library peptides (Thioflavin T); assay type: physicochemical; parameters: key: average ThT fluorescence emission at 480 nm (ex 450 nm), raw units; details: Physical stability of peptides
Outline: as §1

[3] = biological target: SCTR (Homo sapiens, UniProt P47872); assay: hSCTR potency, cAMP accumulation in CHO-K1 cells stably overexpressing hSCTR; assay type: cell-based; parameters: alternatively Euroscreen ES-712-AF; FAST-0161L; host or cells: CHO-K1; details: cAMP accumulation, CHO-K1 cells overexpressing hSCTR
Outline: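 In this Gs cAMP assay, stably transfected CHO-K1 hSCTR cells were stimulated at room temperature for 30 min in IBMX-containing buffer. Time-resolved FRET gave the signal. Replicates were increased when the top concentration changed or EC50 values differed 5-fold.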

[4] = biological target: GLP1R (Homo sapiens, UniProt P43220); assay: hGLP1R potency, cAMP accumulation in CHO-K1 cells stably overexpressing hGLP1R; assay type: cell-based; parameters: host or cells: CHO-K1; details: for Selectivity: SCTR EC50/GLP1R EC50 ratio; for EC50: cAMP accumulation, CHO-K1 cells overexpressing hGLP1R; for SCTR EC50/GLP1R EC50 ratio: selectivity for hGLP1R over hSCTR, cAMP accumulation in CHO-K1 cells
Outline: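 In the presence of 0.5 mM IBMX, compounds stimulated the cells for 30 minutes at room temperature. Accumulated cAMP was then detected by TR-FRET, with EC50 values fitted by variable-slope nonlinear regression.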

[5] = read-out: pEC50 hSCTR (converted)
[6] = read-out: pEC50 hGLPR1 (converted)
[7] = read-out: hSCTR pEC50 (converted)
[8] = read-out: hGLP1R pEC50 (converted)

Sequence of SCTR (P47872 23-440): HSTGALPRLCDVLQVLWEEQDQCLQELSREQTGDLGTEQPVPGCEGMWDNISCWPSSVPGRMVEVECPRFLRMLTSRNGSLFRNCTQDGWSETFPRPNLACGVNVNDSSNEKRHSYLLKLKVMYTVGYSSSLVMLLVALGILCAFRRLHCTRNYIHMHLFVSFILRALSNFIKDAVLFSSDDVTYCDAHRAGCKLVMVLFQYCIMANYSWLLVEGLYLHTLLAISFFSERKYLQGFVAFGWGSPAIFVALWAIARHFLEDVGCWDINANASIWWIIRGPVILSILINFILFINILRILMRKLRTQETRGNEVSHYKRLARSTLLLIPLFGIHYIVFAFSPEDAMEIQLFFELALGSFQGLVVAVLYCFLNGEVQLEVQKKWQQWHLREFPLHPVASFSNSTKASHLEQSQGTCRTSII
Sequence of GLP1R (P43220 24-463): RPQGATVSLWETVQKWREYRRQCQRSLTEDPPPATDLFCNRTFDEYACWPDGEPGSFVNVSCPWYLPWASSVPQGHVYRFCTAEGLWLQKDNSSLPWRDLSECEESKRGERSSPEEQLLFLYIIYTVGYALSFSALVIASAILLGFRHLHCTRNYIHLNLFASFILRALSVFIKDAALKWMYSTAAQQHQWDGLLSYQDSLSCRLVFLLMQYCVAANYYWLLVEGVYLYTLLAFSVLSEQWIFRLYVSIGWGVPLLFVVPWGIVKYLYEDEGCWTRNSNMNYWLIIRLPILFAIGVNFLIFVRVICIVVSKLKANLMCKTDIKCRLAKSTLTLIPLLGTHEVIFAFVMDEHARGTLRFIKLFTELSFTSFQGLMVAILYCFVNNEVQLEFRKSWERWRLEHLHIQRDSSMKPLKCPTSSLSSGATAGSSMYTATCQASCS

CC(C)C[C@H](NC(=O)[C@H](Cc1ccccc1)NC(=O)[C@H](CCCNC(=N)N)NC(=O)[C@H](CCC(N)=O)NC(=O)C(C)(C)NC(=O)[C@H](C)NC(=O)[C@H](C)NC(=O)[C@@H](NC(=O)[C@H](CCC(=O)O)NC(=O)[C@H](CCCCNC(=O)COCCOCCNC(=O)COCCOCCNC(=O)CC[C@H](NC(=O)CCCCCCCCCCCCCCCCCCC(=O)O)C(=O)O)NC(=O)[C@H](CC(C)C)NC(=O)[C@H](Cc1ccccc1)NC(=O)[C@H](CO)NC(=O)[C@@H](NC(=O)[C@H](CC(=O)O)NC(=O)[C@H](CO)NC(=O)[C@@H](NC(=O)[C@H](Cc1ccccc1)NC(=O)[C@@H](NC(=O)CNC(=O)[C@H](CCC(=O)O)NC(=O)C(C)(C)NC(=O)[C@@H](N)Cc1c[nH]cn1)[C@@H](C)O)[C@@H](C)O)C(C)C)[C@@H](C)O)C(=O)N[C@@H](CCC(=O)O)C(=O)N[C@@H](Cc1c[nH]cn1)C(=O)N[C@@H](CC(C)C)C(=O)N[C@H](C(N)=O)C(C)C [compound 25] (H-H[Aib]EGTFTSDVSFLK([AEEA-AEEA-γGlu-C20 diacid])ETAA[Aib]QRFLEHLV-NH2)
Turbidity (pH 7) [1]: 0.08 | Fibril formation [2]: 8584 | EC50 [3, 5]: 7940 nM | Selectivity [4]: 8268 | EC50 [4, 6]: 1 nM

CC(C)C[C@H](NC(=O)[C@H](Cc1ccccc1)NC(=O)[C@H](CCCNC(=N)N)NC(=O)[C@H](CCC(N)=O)NC(=O)[C@H](CO)NC(=O)[C@H](C)NC(=O)[C@H](C)NC(=O)C(C)(C)NC(=O)[C@H](CCC(=O)O)NC(=O)[C@H](CCCCNC(=O)COCCOCCNC(=O)COCCOCCNC(=O)CC[C@H](NC(=O)CCCCCCCCCCCCCCCCCCC(=O)O)C(=O)O)NC(=O)[C@H](CC(C)C)NC(=O)[C@H](Cc1ccccc1)NC(=O)[C@H](CO)NC(=O)[C@@H](NC(=O)[C@H](CC(=O)O)NC(=O)[C@H](CO)NC(=O)[C@@H](NC(=O)[C@H](Cc1ccccc1)NC(=O)[C@@H](NC(=O)CNC(=O)[C@H](CCC(=O)O)NC(=O)C(C)(C)NC(=O)[C@@H](N)Cc1c[nH]cn1)[C@@H](C)O)[C@@H](C)O)C(C)C)C(=O)N[C@@H](CCC(=O)O)C(=O)N[C@@H](Cc1c[nH]cn1)C(=O)N[C@@H](CC(C)C)C(=O)N[C@H](C(N)=O)C(C)C [compound 74] (H-H[Aib]EGTFTSDVSFLK([AEEA-AEEA-γGlu-C20 diacid])E[Aib]AASQRFLEHLV-NH2)
Turbidity (pH 7) [1]: 0.08 | Fibril formation [2]: 12039 | EC50 [3, 5]: 12600 nM | Selectivity [4]: 231739 | EC50 [4, 6]: 0.0631 nM

CC[C@H](C)[C@H](NC(=O)[C@H](Cc1ccccc1)NC(=O)[C@H](CCCNC(=N)N)NC(=O)[C@H](CCC(N)=O)NC(=O)[C@H](CC(C)C)NC(=O)[C@H](C)NC(=O)[C@H](C)NC(=O)CNC(=O)[C@H](CCC(=O)O)NC(=O)[C@H](CC(C)C)NC(=O)[C@H](CC(C)C)NC(=O)C(C)(C)NC(=O)[C@H](CO)NC(=O)[C@@H]1CCCN1C(=O)[C@H](CC(=O)O)NC(=O)[C@H](CO)NC(=O)[C@@H](NC(=O)[C@H](Cc1ccccc1)NC(=O)[C@@H](NC(=O)CNC(=O)[C@H](CCC(=O)O)NC(=O)C(C)(C)NC(=O)[C@@H](N)Cc1c[nH]cn1)[C@@H](C)O)[C@@H](C)O)C(=O)N[C@@H](CCC(N)=O)C(=O)N[C@@H](Cc1c[nH]c2ccccc12)C(=O)N[C@@H](CC(C)C)C(=O)N[C@H](C(N)=O)C(C)C [compound 125] (H-H[Aib]EGTFTSDPS[Aib]LLEGAALQRFIQWLV-NH2)
Turbidity (pH 7) [1]: 0.11 | Fibril formation [2]: 4675 | EC50 [3, 7]: 10000 nM | EC50 [4, 8]: 3.98 nM | SCTR EC50/GLP1R EC50 ratio [4]: 2342

CC(C)C[C@H](NC(=O)[C@H](Cc1ccccc1)NC(=O)[C@H](CCCNC(=N)N)NC(=O)[C@H](CCC(N)=O)NC(=O)CNC(=O)C(C)(C)NC(=O)[C@H](C)NC(=O)[C@H](CCC(=O)O)NC(=O)[C@H](CCC(=O)O)NC(=O)[C@H](CCCCNC(=O)COCCOCCNC(=O)COCCOCCNC(=O)CC[C@H](NC(=O)CCCCCCCCCCCCCCCCCCC(=O)O)C(=O)O)NC(=O)[C@H](CC(C)C)NC(=O)[C@H](Cc1ccc(O)cc1)NC(=O)[C@H](CO)NC(=O)[C@@H](NC(=O)[C@H](CC(=O)O)NC(=O)[C@H](CO)NC(=O)[C@@H](NC(=O)[C@H](Cc1ccccc1)NC(=O)[C@@H](NC(=O)CNC(=O)[C@H](CCC(=O)O)NC(=O)C(C)(C)NC(=O)[C@@H](N)Cc1c[nH]cn1)[C@@H](C)O)[C@@H](C)O)C(C)C)C(=O)N[C@@H](CCC(=O)O)C(=O)N[C@@H](Cc1c[nH]cn1)C(=O)N[C@@H](CC(C)C)C(=O)N[C@H](C(N)=O)C(C)C [compound 154] (H-H[Aib]EGTFTSDVSYLK([AEEA-AEEA-γGlu-C20 diacid])EEA[Aib]GQRFLEHLV-NH2)
Turbidity (pH 7) [1]: 0.08 | Fibril formation [2]: 3107 | EC50 [3, 7]: 3980 nM | EC50 [4, 8]: 0.0158 nM | SCTR EC50/GLP1R EC50 ratio [4]: 203892

CC[C@H](C)[C@H](NC(=O)[C@H](Cc1ccccc1)NC(=O)[C@H](CCCNC(=N)N)NC(=O)[C@H](CCC(N)=O)NC(=O)[C@H](CC(C)C)NC(=O)[C@H](C)NC(=O)[C@H](C)NC(=O)CNC(=O)[C@H](CCC(=O)O)NC(=O)[C@H](CC(C)C)NC(=O)[C@H](CC(C)C)NC(=O)[C@H](CCCNC(=N)N)NC(=O)[C@H](CO)NC(=O)[C@@H](NC(=O)[C@H](CC(=O)O)NC(=O)[C@H](CO)NC(=O)[C@@H](NC(=O)[C@H](Cc1ccccc1)NC(=O)[C@@H](NC(=O)CNC(=O)[C@H](CCC(=O)O)NC(=O)C(C)(C)NC(=O)[C@@H](N)Cc1c[nH]cn1)[C@@H](C)O)[C@@H](C)O)[C@@H](C)CC)C(=O)N[C@@H](CCC(N)=O)C(=O)N[C@@H](Cc1c[nH]c2ccccc12)C(=O)N[C@@H](CC(C)C)C(=O)N[C@H](C(N)=O)C(C)C [compound 115] (H-H[Aib]EGTFTSDISRLLEGAALQRFIQWLV-NH2)
Turbidity (pH 7) [1]: 0.48 | Fibril formation [2]: 6433 | EC50 [3, 7]: 15.8 nM | EC50 [4, 8]: 0.0398 nM | SCTR EC50/GLP1R EC50 ratio [4]: 459

CC(C)C[C@H](NC(=O)[C@H](Cc1ccccc1)NC(=O)[C@H](CCCNC(=N)N)NC(=O)[C@H](CCC(N)=O)NC(=O)[C@H](CC(C)C)NC(=O)C(C)(C)NC(=O)[C@H](C)NC(=O)[C@H](CCC(=O)O)NC(=O)[C@H](CCC(=O)O)NC(=O)[C@H](CCCCNC(=O)COCCOCCNC(=O)COCCOCCNC(=O)CC[C@H](NC(=O)CCCCCCCCCCCCCCCCCCC(=O)O)C(=O)O)NC(=O)[C@H](CC(C)C)NC(=O)[C@H](CC(C)C)NC(=O)[C@H](CO)NC(=O)[C@@H](NC(=O)[C@H](CC(=O)O)NC(=O)[C@H](CO)NC(=O)[C@@H](NC(=O)[C@H](Cc1ccccc1)NC(=O)[C@@H](NC(=O)CNC(=O)[C@H](CCC(=O)O)NC(=O)C(C)(C)NC(=O)[C@@H](N)Cc1c[nH]cn1)[C@@H](C)O)[C@@H](C)O)C(C)C)C(=O)N[C@@H](CCC(=O)O)C(=O)N[C@@H](Cc1c[nH]cn1)C(=O)N[C@@H](CC(C)C)C(=O)N[C@H](C(N)=O)C(C)C [compound 149] (H-H[Aib]EGTFTSDVSLLK([AEEA-AEEA-γGlu-C20 diacid])EEA[Aib]LQRFLEHLV-NH2)
Turbidity (pH 7) [1]: 0.08 | Fibril formation [2]: 2878 | EC50 [3, 7]: 31.6 nM | EC50 [4, 8]: 0.0126 nM | SCTR EC50/GLP1R EC50 ratio [4]: 2619

CC(C)C[C@H](NC(=O)[C@H](CCC(=O)O)NC(=O)[C@H](CCCCNC(=O)COCCOCCNC(=O)COCCOCCNC(=O)CC[C@H](NC(=O)CCCCCCCCCCCCCCCCCCC(=O)O)C(=O)O)NC(=O)[C@H](CC(C)C)NC(=O)[C@H](Cc1ccc(O)cc1)NC(=O)[C@H](CO)NC(=O)[C@@H](NC(=O)[C@H](CC(=O)O)NC(=O)[C@H](CO)NC(=O)[C@@H](NC(=O)[C@H](Cc1ccccc1)NC(=O)[C@@H](NC(=O)CNC(=O)[C@H](CCC(=O)O)NC(=O)C(C)(C)NC(=O)[C@@H](N)Cc1c[nH]cn1)[C@@H](C)O)[C@@H](C)O)C(C)C)C(=O)N[C@@H](C)C(=O)N[C@@H](C)C(=O)N[C@@H](C)C(=O)N[C@@H](CCC(N)=O)C(=O)N[C@@H](CCCNC(=N)N)C(=O)N[C@@H](Cc1ccccc1)C(=O)N[C@@H](CC(C)C)C(=O)N[C@@H](CCC(=O)O)C(=O)N[C@@H](Cc1c[nH]cn1)C(=O)N[C@@H](CC(C)C)C(=O)N[C@H](C(N)=O)C(C)C [compound 86] (H-H[Aib]EGTFTSDVSYLK([AEEA-AEEA-γGlu-C20 diacid])ELAAAQRFLEHLV-NH2)
Turbidity (pH 7) [1]: 0.08 | Fibril formation [2]: 9344 | EC50 [3, 7]: 3980 nM | EC50 [4, 8]: 0.2 nM | SCTR EC50/GLP1R EC50 ratio [4]: 19815
